Experimental data as given in PubChem BioAssay AID850 (SRMLSC, 2007).
Calls of active or inactive are those of the source. How the calls were made is not given here.

Legend:
[1] = system: Saccharomyces cerevisiae growth inhibition, permissive control; test: concentration-response yeast growth inhibition under permissive conditions, counter-assay for yeast lifespan-shortening chemical project (AID 850);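 further: growth read as optical density after one day of incubation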
[2] = as above; settings: Saccharomyces cerevisiae growth inhibition, permissive control, measured here: maximum growth inhibition, stronger effect = higher value

| SMILES | IC50 [1] | inhibition ([2]; at 50 µM) | further results |
| --- | --- | --- | --- |
| CC(C)(C)N/N=C/c1cc(Cl)cc([N+](=O)[O-])c1O | 16.8 µM | 95.7% | – |
| O=C1CSC(=S)N1c1cccnc1 | > 100 µM (inactive) | 14.8% | – |
| Fc1ccc(Br)cc1C1C=C(c2cccnc2)Nc2ncnn21 (centres undefined) | > 100 µM (inactive) | 26.3% | – |
| Fc1ccc(-c2ccc(-c3nn4c(-c5ccco5)nnc4s3)o2)cc1 | > 100 µM (inactive) | – | inhibition ([2]; at 6.25 µM): 13.4% |
| Oc1ccc(N=Nc2cccc(Cl)c2)cc1C=Nc1ccc(N2CCOCC2)cc1 | > 100 µM (inactive) | – | inhibition ([2]; at 12.5 µM): 2.01% |
| OC(Cn1cncn1)(c1ccccc1)c1ccccc1 | 6.82 µM | – | inhibition ([2]; at 12.5 µM): 90.3% |
| Nc1ccc(SC(F)(F)F)cc1C(=O)c1ccccc1 | > 100 µM (inactive) | – | inhibition ([2]; at 0.391 µM): 14.9% |
| CN1CCc2cc3c(c4c2[C@H]1[C@H](O)c1ccccc1-4)OCO3 | > 100 µM (inactive) | 11.1% | – |
| Cc1ccc(N2NC(C)(c3cccs3)NC2=S)cc1 (centres undefined) | 12.1 µM | – | inhibition ([2]; at 25 µM): 94.1% |
| Cc1ccc(N/N=C/c2c(O)cc(C)oc2=O)cc1 | 11.8 µM | 99.4% | – |
| CNC(=S)N/N=C(\C)c1ccc(N2CCOCC2)cc1 | > 100 µM (inactive) | – | inhibition ([2]; at 0.195 µM): 9.86% |
| CC1=NNC(=O)/C1=C\c1cn(-c2ccccc2)nc1-c1cccs1 | 8.18 µM | 98% | – |
| CC(C)CC(=O)/C(=C\c1ccc(Cl)cc1Cl)n1cncn1 | 11.7 µM | 100% | – |
| COc1ccc(N)c2c1C(=O)c1ccccc1C2=O | > 100 µM (inactive) | – | inhibition ([2]; at 25 µM): 22.5% |
| Cc1cc(C)cc(N=Cc2ccc([N+](=O)[O-])s2)c1 | 12.3 µM | 100% | – |
| CC(Oc1ccc(Cl)cc1Cl)C(=O)NC1=NN(c2ccccc2)C(=O)C1 (centres undefined) | 16.6 µM | 98.6% | – |
| CC(C)(C)c1ccc(C(=O)NC(=S)NNC(=O)c2cccs2)cc1 | 41.7 µM | 53.8% | – |
| O=C(Nc1cc(C(F)(F)F)ccc1Cl)C(Sc1cccc[n+]1[O-])c1ccccc1 (centres undefined) | 6.31 µM | 99.8% | – |
| Cc1nc2ccc(NC(=O)c3cc([N+](=O)[O-])cc([N+](=O)[O-])c3Cl)cc2s1 | 15.2 µM | 98.4% | – |

| SMILES | IC50 [1] | inhibition ([2]; at 50 µM) | further results |
| --- | --- | --- | --- |
| Cc1ccc(NN2C(=O)C=C(c3ccc(Cl)cc3)C2=O)cc1 | 9.53 µM | 98% | – |
| COc1ccc(-c2nnc3c4ccccc4c(C)nn23)cc1 | > 100 µM (inactive) | – | inhibition ([2]; at 1.563 µM): 11.6% |
| Nc1ccc(O)c2c1C(=O)c1ccccc1C2=O | > 100 µM (inactive) | – | inhibition ([2]; at 25 µM): 16.4% |
| CCCc1cc(C(=O)NC2CCCCC2)no1 | > 100 µM (inactive) | – | inhibition ([2]; at 0.391 µM): 10.3% |
| CC(=O)N1CCN(c2ccc(OC[C@H]3CO[C@](Cn4ccnc4)(c4ccc(Cl)cc4Cl)O3)cc2)CC1 | 4.25 µM | 96% | – |
| O=c1oc2ccccc2cc1-c1cn2cccnc2n1 | > 100 µM (inactive) | – | inhibition ([2]; at 12.5 µM): 13.2% |
| N/C(Cc1ccc(Cl)c(Cl)c1)=N\OC(=O)c1cccs1 | > 100 µM (inactive) | – | inhibition ([2]; at 0.195 µM): 4.64% |
| Cc1ccc(C(NC(=O)C(C)C)c2cc([N+](=O)[O-])c3cccnc3c2O)cc1 (centres undefined) | 28.8 µM | 90.4% | – |
| O=C(C1=C(O)/C(=C/c2ccc(O)cc2)CCC1)C(F)(F)F | > 100 µM (inactive) | – | inhibition ([2]; at 0.195 µM): 7.72% |
| O=C1C=C(c2ccc(Cl)cc2)C(=O)N1Nc1ccccc1 | 6.75 µM | 99.4% | – |
| O=C(/C=C/N1CCOCC1)c1ccc(-c2ccccc2)cc1 | 7.19 µM | – | inhibition ([2]; at 25 µM): 99.6% |
| Clc1ccc(CCNc2nc3ccccc3s2)cc1 | > 100 µM (inactive) | – | inhibition ([2]; at 0.195 µM): -6.19% |
| CC1CCC2(CC1)NC(=S)N(c1ccccc1)N2 (centres undefined) | 14.1 µM | 97.5% | – |
| O=C(/C=C/c1ccccc1Cl)c1ccccc(=O)c1O | 11.5 µM | 101% | – |
| OC(CNCCc1ccc(C(F)(F)F)cc1)COc1ccc2ccccc2c1 (centres undefined) | > 100 µM (inactive) | 20.9% | – |
| COc1ccc2c(c1)S/C(=C\C(=O)c1ccncc1)N2C | 6.24 µM | 92.6% | – |
| Cc1ccccc1C(=O)NNC(=S)NC(=O)COc1ccccc1 | 26.5 µM | 73.9% | – |
| CCCCOc1ccc(C(=O)NNC(=S)NC(=O)CC)cc1 | 24.8 µM | 81.6% | – |
